Experimental findings from ChEMBL document CHEMBL1130864, “Potent and efficacious thienylamidine-incorporated thrombin inhibitors” (Bioorg Med Chem Lett, 1998) are described below.

For orientation: Ki means a dissociation constant, usually derived from enzyme kinetics or from competition with a known ligand. High values mean lower affinity, low ones higher affinity.

In experiment [1] the target is Prothrombin (Homo sapiens, UniProt P00734). The experiment is described as follows: Compound was evaluated for its inhibitory activity against human thrombin.
The target of experiment [2] is T1, Serine protease 1 (Bos taurus, UniProt P00760).
T1 sequence (P00760 whole entry): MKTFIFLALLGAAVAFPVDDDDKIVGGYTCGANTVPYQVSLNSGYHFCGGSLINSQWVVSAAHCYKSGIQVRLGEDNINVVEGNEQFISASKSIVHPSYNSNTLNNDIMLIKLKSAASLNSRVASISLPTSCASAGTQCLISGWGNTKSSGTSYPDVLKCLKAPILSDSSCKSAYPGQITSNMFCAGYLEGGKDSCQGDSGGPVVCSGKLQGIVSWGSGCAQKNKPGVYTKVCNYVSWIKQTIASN
The experiment can be described thus: Compound was evaluated for its inhibitory activity against bovine trypsin.

Take `COc1ccc2cc(S(=O)(=O)N[C@@H](Cc3ccc(C(=N)N)s3)C(=O)N(C)C3CCCC3)ccc2c1`: the Ki in experiment [1] came to 0.00049 µM; in experiment [2] it was 0.134 µM. For `CN(C(=O)[C@H](Cc1ccc(C(=N)N)s1)NS(=O)(=O)c1ccc2ccccc2c1)C1CCCC1`, the inhibitory constant (Ki) in experiment [1] was 0.003 µM; in experiment [2], 0.153 µM. As for `CCCc1ccc(S(=O)(=O)N[C@@H](Cc2ccc(C(=N)N)cc2)C(=O)N(C)C2CCCC2)cc1`, the Ki is 0.00084 µM in experiment [1] and 2.44 µM in experiment [2].

The molecule `CN(C(=O)[C@H](Cc1ccc(C(=N)NN)s1)NS(=O)(=O)c1ccc2ccccc2c1)C1CCCC1` registered a Ki in experiment [1] of 0.091 µM. For the molecule `CCCc1ccc(S(=O)(=O)N[C@@H](Cc2ccc(C(=N)N)s2)C(=O)N(C)C2CCCC2)cc1`, the inhibition constant Ki in experiment [1] stood at 0.0006 µM; in experiment [2], 0.15 µM.

Regarding `CN(C(=O)[C@H](Cc1ccc(C(=N)N)cc1)NS(=O)(=O)c1ccc2ccccc2c1)C1CCCC1`, the inhibition constant (Ki) was 0.0068 µM in experiment [1] and 16.2 µM in experiment [2].
